# Measurements from patent US9302991B2, “Arylamide derivatives as TTX-S blockers” (RaQualia Pharma Inc., priority 2010, dated 2016).
# Key:
# human Nav1.3 channels = target: T1, human Nav1.3 channels (Homo sapiens, UniProt Q9NY46); assay: FRET assay, human Nav1.3 (EFS on FDSS); assay type: cell-based; details: HEK293 cells expressing human Nav1.3, read-out: IC50 against Nav1.3
# T1 construct: expressed in transfected cells; host or cells: HEK293
# Outline: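 HEK293 cells expressing the channel, loaded with 10 microM CC2-DMPE then 15 microM DiSBAC2(3) plus 0.555 mM VABSC-1 in pH 7.4 HEPES buffer at room temperature. Membrane potential changes evoked by electrical field stimulation after compound addition; IC50 from 440 nm-normalized FRET ratios.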
# human Nav1.7 channels = target: T2, human Nav1.7 channels (Homo sapiens, UniProt Q15858); assay: FRET assay, human Nav1.7 (EFS on FDSS); assay type: cell-based; details: CHO cells expressing human Nav1.7, read-out: IC50 against Nav1.7
# T2 construct: expressed in transfected cells; host or cells: CHO
# Outline: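 IC50 was derived from normalized 440 nm fluorescence ratios of the EFS-evoked membrane-potential response read on FDSS. Recombinant CHO cells were sequentially dye-loaded with coumarin/oxonol FRET pair at room temperature in pH 7.4 buffer before compound addition.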
# T1 sequence (Q9NY46 whole entry): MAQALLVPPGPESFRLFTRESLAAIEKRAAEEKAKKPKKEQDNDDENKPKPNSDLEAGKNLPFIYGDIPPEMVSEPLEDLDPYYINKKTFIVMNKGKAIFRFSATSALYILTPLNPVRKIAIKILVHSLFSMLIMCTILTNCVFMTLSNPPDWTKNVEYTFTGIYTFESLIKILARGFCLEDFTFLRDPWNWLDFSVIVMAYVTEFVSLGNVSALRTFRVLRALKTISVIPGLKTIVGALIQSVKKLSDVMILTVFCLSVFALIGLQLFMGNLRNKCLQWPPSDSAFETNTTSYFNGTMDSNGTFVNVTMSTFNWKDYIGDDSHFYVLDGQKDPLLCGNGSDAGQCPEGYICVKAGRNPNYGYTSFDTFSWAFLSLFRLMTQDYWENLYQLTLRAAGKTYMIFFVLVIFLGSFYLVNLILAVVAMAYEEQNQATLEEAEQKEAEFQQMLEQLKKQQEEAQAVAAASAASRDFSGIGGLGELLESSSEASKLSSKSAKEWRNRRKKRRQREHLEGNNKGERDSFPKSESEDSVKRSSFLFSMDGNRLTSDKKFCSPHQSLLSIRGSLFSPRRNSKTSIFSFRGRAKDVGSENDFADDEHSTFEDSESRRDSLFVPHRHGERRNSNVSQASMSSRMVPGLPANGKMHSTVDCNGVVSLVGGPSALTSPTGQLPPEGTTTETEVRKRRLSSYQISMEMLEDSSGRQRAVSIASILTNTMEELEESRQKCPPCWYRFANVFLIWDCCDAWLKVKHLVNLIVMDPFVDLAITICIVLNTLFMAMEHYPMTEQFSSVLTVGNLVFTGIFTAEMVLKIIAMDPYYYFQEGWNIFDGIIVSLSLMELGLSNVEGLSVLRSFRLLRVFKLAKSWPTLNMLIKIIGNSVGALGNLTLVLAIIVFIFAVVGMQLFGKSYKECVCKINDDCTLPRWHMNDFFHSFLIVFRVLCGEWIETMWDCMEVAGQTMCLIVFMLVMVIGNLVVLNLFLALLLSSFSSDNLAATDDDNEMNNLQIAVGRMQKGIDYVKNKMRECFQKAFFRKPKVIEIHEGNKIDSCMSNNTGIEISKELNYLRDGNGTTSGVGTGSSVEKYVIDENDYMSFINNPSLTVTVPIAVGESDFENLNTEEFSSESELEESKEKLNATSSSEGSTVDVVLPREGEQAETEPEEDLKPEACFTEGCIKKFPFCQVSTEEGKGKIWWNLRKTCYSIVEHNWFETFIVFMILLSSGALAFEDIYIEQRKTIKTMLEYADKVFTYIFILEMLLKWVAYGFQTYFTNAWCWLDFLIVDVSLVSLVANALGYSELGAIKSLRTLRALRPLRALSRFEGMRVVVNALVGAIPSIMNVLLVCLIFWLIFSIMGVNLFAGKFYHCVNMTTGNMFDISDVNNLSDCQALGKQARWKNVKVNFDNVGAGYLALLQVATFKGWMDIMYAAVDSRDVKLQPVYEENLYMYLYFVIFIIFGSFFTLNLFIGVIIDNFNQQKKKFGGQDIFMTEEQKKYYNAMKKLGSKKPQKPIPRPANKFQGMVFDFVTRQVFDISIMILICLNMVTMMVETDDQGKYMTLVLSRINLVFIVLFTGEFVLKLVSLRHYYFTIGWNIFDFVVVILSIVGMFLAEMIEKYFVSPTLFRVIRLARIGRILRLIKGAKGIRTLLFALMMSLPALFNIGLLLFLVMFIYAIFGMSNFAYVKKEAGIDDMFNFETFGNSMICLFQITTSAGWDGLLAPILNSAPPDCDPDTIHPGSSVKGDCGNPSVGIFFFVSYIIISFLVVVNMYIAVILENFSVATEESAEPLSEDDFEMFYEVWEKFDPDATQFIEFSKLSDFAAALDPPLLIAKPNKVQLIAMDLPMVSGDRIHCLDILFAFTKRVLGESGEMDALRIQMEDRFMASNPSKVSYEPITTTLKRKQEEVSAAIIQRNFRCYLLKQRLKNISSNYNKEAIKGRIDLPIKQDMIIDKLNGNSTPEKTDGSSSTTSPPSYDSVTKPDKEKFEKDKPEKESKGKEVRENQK
# T2 sequence (Q15858 whole entry): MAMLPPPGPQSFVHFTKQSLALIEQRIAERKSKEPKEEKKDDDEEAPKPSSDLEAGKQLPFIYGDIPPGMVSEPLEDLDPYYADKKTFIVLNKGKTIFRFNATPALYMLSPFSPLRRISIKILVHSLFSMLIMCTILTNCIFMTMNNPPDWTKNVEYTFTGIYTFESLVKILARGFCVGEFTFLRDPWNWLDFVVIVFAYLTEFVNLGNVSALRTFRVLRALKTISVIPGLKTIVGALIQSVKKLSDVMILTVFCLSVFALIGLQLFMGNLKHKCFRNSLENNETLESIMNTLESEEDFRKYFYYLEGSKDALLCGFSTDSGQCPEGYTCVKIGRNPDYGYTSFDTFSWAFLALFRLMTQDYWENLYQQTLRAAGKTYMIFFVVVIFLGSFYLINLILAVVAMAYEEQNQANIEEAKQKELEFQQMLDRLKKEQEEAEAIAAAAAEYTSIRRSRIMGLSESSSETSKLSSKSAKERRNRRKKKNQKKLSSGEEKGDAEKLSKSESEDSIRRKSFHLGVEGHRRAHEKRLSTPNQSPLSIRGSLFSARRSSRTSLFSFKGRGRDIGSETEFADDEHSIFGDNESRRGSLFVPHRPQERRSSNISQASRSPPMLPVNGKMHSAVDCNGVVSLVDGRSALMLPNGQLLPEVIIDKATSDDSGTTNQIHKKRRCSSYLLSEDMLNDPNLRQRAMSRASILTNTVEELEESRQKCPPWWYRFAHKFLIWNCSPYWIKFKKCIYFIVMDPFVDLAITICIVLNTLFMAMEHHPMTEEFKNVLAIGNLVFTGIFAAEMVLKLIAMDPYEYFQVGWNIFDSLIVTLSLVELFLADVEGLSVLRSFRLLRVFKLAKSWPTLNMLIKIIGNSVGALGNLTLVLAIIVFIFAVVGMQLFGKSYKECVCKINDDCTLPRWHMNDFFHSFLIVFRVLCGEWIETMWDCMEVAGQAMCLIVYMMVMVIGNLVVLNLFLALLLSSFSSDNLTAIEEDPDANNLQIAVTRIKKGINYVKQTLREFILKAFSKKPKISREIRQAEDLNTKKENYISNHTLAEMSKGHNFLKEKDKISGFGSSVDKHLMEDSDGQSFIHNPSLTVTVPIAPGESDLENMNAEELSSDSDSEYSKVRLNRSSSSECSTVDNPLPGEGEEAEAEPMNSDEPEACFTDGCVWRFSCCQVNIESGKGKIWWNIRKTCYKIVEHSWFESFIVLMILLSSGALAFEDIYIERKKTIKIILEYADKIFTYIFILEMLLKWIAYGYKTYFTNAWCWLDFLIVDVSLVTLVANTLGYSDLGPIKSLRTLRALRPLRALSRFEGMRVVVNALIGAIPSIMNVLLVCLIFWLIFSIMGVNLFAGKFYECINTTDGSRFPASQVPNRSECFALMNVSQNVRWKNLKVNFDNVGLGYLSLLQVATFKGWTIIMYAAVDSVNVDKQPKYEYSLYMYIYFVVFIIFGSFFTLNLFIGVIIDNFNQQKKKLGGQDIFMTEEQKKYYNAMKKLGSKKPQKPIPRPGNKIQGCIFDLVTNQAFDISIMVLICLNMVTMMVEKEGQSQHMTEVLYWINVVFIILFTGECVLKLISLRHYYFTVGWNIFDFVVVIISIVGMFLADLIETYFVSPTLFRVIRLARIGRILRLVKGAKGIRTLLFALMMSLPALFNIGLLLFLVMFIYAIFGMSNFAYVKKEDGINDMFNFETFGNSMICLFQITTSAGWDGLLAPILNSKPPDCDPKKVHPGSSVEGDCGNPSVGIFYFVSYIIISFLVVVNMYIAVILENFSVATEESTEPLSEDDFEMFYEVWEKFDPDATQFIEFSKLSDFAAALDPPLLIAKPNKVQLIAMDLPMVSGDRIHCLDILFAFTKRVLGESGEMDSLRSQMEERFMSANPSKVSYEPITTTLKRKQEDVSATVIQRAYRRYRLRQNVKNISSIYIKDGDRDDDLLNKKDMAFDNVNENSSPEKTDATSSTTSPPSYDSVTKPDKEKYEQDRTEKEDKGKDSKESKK
SMILES,IC50 (human Nav1.3 channels) [nM],IC50 (human Nav1.7 channels) [nM]
"Cc1cc(C(=O)NC(C)c2cnc(OCC(F)(F)F)c(C)c2)cc(NC(=O)CC2CC2)n1 (single isomer, unassigned) [Example 953, 2-(2-cyclopropylacetamido)-6-methyl-N-(1-(5-methyl-6-(2,2,2-trifluoroethoxy)pyridin-3-yl)ethyl)isonicotinamide]",< 1000,< 1000
"CC(=O)Nc1cc(C(=O)NCc2cccc(C(F)(F)F)c2C)cc(C)n1 [Example 815, 2-acetamido-6-methyl-N-(2-methyl-3-(trifluoromethyl)benzyl)isonicotinamide]",< 1000,< 1000
"CCOc1nc(OCC(F)(F)F)ccc1CNC(=O)c1cc(C)nc(NC(=O)CC)n1 [Example 359, N-((2-ethoxy-6-(2,2,2-trifluoroethoxy)pyridin-3-yl)methyl)-6-methyl-2-propionamidopyrimidine-4-carboxamide]",< 1000,< 1000
"CCC(=O)Nc1cc(C(=O)NC(C)c2ccc(OCC(F)(F)F)c(Cl)c2)cc(C)n1 (single isomer, unassigned) [Example 677, N-(1-(3-chloro-4-(2,2,2-trifluoroethoxy)phenyl)ethyl)-2-methyl-6-propionamidoisonicotinamide]",< 1000,< 1000
"CC(C)C(=O)Nc1cc(C(=O)NC(C)c2ccc(OCC(F)(F)F)nc2)ccn1 (single isomer, unassigned) [Example 8, 2-isobutyramido-N-(1-(6-(2,2,2-trifluoroethoxy)pyridin-3-yl)ethyl)isonicotinamide]",< 1000,< 1000
"Cc1cc(C(=O)NCc2ccc(OC(F)(F)F)c(C)c2)cc(NC(=O)C(C)C)n1 [Example 809, 2-isobutyramido-6-methyl-N-(3-methyl-4-(trifluoromethoxy)benzyl)isonicotinamide]",< 1000,< 1000

# More lines, now with the values ahead:
IC50 (human Nav1.3 channels) [nM],IC50 (human Nav1.7 channels) [nM],SMILES
< 1000,< 1000,"CCC(=O)Nc1cc(C(=O)NCc2cnc(OCC(F)(F)C(F)F)c(C)c2)ccn1 [Example 940, N-((5-methyl-6-(2,2,3,3-tetrafluoropropoxy)pyridin-3-yl)methyl)-2-propionamidoisonicotinamide]"
< 1000,< 1000,"CCC(=O)Nc1cc(C(=O)NC(C)c2cnc(OCC(F)(F)C(F)F)c(C)c2)ccn1 (single isomer, unassigned) [Example 925, N-(1-(5-methyl-6-(2,2,3,3-tetrafluoropropoxy)pyridin-3-yl)ethyl)-2-propionamidoisonicotinamide]"
< 1000,< 1000,"Cc1cc(CNC(=O)c2ccnc(NC(=O)C3CC3)c2)cnc1OCC(F)(F)C(F)F [Example 942, 2-(cyclopropanecarboxamido)-N-((5-methyl-6-(2,2,3,3-tetrafluoropropoxy)pyridin-3-yl)methyl)isonicotinamide]"
< 1000,< 1000,"CC(C)C(=O)Nc1cc(C(=O)NCc2cccc(OC(F)(F)F)c2)ccn1 [Example 527, 2-isobutyramido-N-(3-(trifluoromethoxy)benzyl)isonicotinamide]"
